In the assay the test system is mucin MUC-5B secreted by F508del/F508del CF human airway epithelial cells. Put plainly: MUC-5B ELISA, CF airway epithelial cells cultured at the air-liquid interface (ALI). The class given is cell-based. The method, then:
FIG. 8: Measurement by ELISA assay of the mucin MUC-5B secreted by F508del/F508del CF human airway epithelial cells cultured at the air-liquid interface (ALI). Airway epithelial cells were seeded in bi-compartmental chambers and cultured in liquid-liquid condition until confluence was reached. At confluence, culture medium from the upper chamber was removed to create an air-liquid interface (ALI) that will favor epithelial cell differentiation. From the ALI creation, the different treatments (15-45 kDa sodium-hyaluronic acid (HA-Na 15-45 kDa) (ARD—Pomacle—France—as prepared according to WO2004050187), 15-30 kDa sodium-hyaluronic acid (HA-Na 15-30 kDa) (Sigma Aldrich), or 30-50 kDa sodium-hyaluronic acid (HA-Na 30-50 kDa) (Sigma Aldrich)) were added at 1 mg/mL to the culture medium in the basal chamber. The culture medium was renewed three times a week. At ALI day 15 and ALI Day 25, the culture in the upper chamber was rinsed with PBS then, a small volume of fresh medium without any treatment was placed at the contact of the apical part of the epithelium. After a 4 h-period, this apical culture medium was collected and the MUC-5B content was determined by ELISA assay. n=3 different F508del/F508del CF patients. p<0.001 (***); p<0.01 (**); p<0.05 (*). ns: non-significant.
FIG. 9: Measurement by ELISA assay of the mucin MUC-5B secreted by F508del/F508del CF human airway epithelial cells cultured at the air-liquid interface (ALI). Airway epithelial cells were seeded in bi-compartmental chambers and cultured in liquid-liquid condition until confluence was reached. At confluence, culture medium from the upper chamber was removed to create an air-liquid interface (ALI) that will favor epithelial cell differentiation. From the ALI creation, the different treatments (15-45 kDa sodium-hyaluronic acid (HA-Na 15-45 kDa) (ARD—Pomacle—France—as prepared according to WO2004050187), 15-45 kDa calcium-hyaluronic acid (HA-Ca 15-45 kDa; ARD), or 15-45 kDa potassium-hyaluronic acid (HA-K 15-45 kDa; ARD) were added at 1 mg/mL to the culture medium in the basal chamber. The culture medium was renewed three times a week. At ALI day 15 and ALI Day 25, the culture in the upper chamber was rinsed with PBS then, a small volume of fresh medium without any treatment was placed at the contact of the apical part of the epithelium. After a 4 h-period, this apical culture medium was collected and the MUC-5B content was determined by ELISA assay. n=3 different F508del/F508del CF patients. p<0.001 (***); p<0.01 (**); p<0.05 (*). ns: non-significant.
FIG. 10: Measurement by ELISA assay of the mucin MUC-5B secreted by F508del/F508del CF human airway epithelial cells cultured at the air-liquid interface (ALI). Airway epithelial cells were seeded in bi-compartmental chambers and cultured in liquid-liquid condition until confluence was reached. At confluence, culture medium from the upper chamber was removed to create an air-liquid interface (ALI) that will favor epithelial cell differentiation. From the ALI creation, 15-45 kDa sodium-hyaluronic acid (HA-Na 15-45 kDa) (ARD—Pomacle—France—as prepared according to WO2004050187) was added at 2 mg/mL, 1 mg/mL or 0.5 mg/mL to the culture medium in the basal chamber. The culture medium was renewed three times a week. At ALI day 15 and ALI Day 25, the culture in the upper chamber was rinsed with PBS then, a small volume of fresh medium without any treatment was placed at the contact of the apical part of the epithelium. After a 4 h-period, this apical culture medium was collected and the MUC-5B content was determined by ELISA assay. n=3 different F508del/F508del CF patients. p<0.001 (***); p<0.01 (**); p<0.05 (*). ns: non-significant.
On the technique in general: An ELISA detects its analyte on a solid surface through an enzyme-linked reagent.

[1] abbreviates: 1 mg/mL, ALI day 15, vs control condition, n=3 CF patients.
[2] abbreviates: 1 mg/mL, ALI day 25, vs control condition, n=3 CF patients.

This note sets out measurements from patent publication US20260158056A1, “USE OF LOW MOLECULAR WEIGHT HYALURONIC ACID FOR THE TREATMENT OF LUNG MUCOSAL INFLAMMATION” (INSTITUT NATIONAL DE LA SANTÉ ET DE LA RECHERCHE MÉDICALE, priority 2021, published 2026).

For “15-30 kDa sodium-hyaluronic acid [HA-Na 15-30 kDa]”, the “decrease in MUC-5B secretion” value came out at 14.1% under setting [1] and 17.3% under setting [2].
Regarding “15-45 kDa calcium-hyaluronic acid [HA-Ca 15-45 kDa]”, the “decrease in MUC-5B secretion” value came to 85.5% under setting [1] and 58.8% under setting [2].
Take “15-45 kDa potassium-hyaluronic acid [HA-K 15-45 kDa]”: the “decrease in MUC-5B secretion” value under setting [1] was found to be 34.7%.
In the case of “15-45 kDa sodium-hyaluronic acid [HA-Na 15-45 kDa]”, the “decrease in MUC-5B secretion” value runs as follows: under setting [1], 37.3%; under setting [2], 33.2%; (FIG. 10, 0.5 mg/mL, ALI day 15 and ALI day 25) “does not have any effect”; (FIG. 10, 2 mg/mL, ALI day 15) 97.9%; (FIG. 10, 2 mg/mL, ALI day 25) 81.2%.
On to “30-50 kDa sodium-hyaluronic acid [HA-Na 30-50 kDa]”, for which the “decrease in MUC-5B secretion” value is on record as 68.7% under setting [1] and 67.1% under setting [2].
